Data taken from ChEMBL document CHEMBL1142906, “Structure-activity relationships of novel piperazines as antagonists for the melanocortin-4 receptor” (Bioorg Med Chem, 2007).

What was measured:
D(2) dopamine receptor = D(2) dopamine receptor (Rattus norvegicus, UniProt P61169); test: Displacement of [3H]raclopride from dopamine D2 receptor in rat striatal membranes; assay type: cell membranes, Membrane
Mu-type opioid receptor = Mu-type opioid receptor (Rattus norvegicus, UniProt P33535); test: Displacement of [3H]DAMGO from mu opiate receptor in rat brain membranes; assay type: cell membranes
[1] = target: Norepinephrine transporter (Rattus norvegicus, UniProt Q9WTR4); test: Displacement of [3H]nisoxetine from NET in rat cortical membranes; assay type: cell membranes, Membrane
[2] = target: Delta-type opioid receptor (Rattus norvegicus, UniProt P33533); test: Displacement of [3H]DPDPE from delta opiate receptor in rat brain membranes; assay type: cell membranes
[3] = target: Sodium-dependent serotonin transporter (Rattus norvegicus, UniProt P31652); test: Displacement of [3H][…] from SET in rat cortical membranes; assay type: cell membranes, Membrane
Histamine H1 receptor = Histamine H1 receptor (Rattus norvegicus, UniProt P31390); test: Displacement of [3H]pyrilamine from histamine H1 receptor in rat brain membranes; assay type: cell membranes
Melanocortin receptor 4 = Melanocortin receptor 4 (Homo sapiens, UniProt P32245); test: Displacement of [125I]Nle4-D-Phe7-alpha-MSH from human MC4 receptor expressed in COS1 cells; assay type: cell-based, COS-1
[4] = target: T1, Adrenergic receptor alpha-1 (Rattus norvegicus, UniProt P15823+P23944+P43140); test: Displacement of [3H]prazosin from adrenergic alpha-1 receptor in rat cortical membranes; assay type: cell membranes, Membrane
T1 sequence (P15823 whole entry): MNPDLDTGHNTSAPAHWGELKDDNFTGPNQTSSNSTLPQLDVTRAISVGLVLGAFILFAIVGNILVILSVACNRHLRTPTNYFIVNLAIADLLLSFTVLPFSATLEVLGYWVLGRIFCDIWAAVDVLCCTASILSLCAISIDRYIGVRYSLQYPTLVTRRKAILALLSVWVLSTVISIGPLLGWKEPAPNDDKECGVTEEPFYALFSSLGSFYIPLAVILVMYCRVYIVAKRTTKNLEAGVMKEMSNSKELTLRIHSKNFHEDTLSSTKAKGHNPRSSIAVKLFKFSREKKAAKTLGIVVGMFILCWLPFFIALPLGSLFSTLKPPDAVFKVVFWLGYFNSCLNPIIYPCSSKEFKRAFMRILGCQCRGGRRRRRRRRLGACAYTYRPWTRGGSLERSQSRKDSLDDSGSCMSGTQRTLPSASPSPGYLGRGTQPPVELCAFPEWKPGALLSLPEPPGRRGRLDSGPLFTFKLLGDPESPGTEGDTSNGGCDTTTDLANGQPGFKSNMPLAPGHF
T1 sequence (P23944 whole entry): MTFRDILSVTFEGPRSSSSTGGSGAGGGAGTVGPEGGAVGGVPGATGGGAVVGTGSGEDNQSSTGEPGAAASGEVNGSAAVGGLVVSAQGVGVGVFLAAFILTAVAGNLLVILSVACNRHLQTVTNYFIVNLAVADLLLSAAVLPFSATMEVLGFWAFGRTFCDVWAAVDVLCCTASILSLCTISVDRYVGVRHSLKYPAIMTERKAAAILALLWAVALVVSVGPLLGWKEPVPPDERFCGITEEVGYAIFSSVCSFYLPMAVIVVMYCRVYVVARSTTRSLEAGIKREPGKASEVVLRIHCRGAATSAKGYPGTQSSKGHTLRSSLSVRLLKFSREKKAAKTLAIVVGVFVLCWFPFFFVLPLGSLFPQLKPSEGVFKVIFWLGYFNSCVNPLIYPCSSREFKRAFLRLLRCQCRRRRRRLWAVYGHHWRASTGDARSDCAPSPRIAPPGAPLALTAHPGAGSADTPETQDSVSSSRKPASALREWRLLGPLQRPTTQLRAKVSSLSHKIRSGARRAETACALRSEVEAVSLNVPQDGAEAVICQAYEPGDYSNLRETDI
T1 sequence (P43140 whole entry): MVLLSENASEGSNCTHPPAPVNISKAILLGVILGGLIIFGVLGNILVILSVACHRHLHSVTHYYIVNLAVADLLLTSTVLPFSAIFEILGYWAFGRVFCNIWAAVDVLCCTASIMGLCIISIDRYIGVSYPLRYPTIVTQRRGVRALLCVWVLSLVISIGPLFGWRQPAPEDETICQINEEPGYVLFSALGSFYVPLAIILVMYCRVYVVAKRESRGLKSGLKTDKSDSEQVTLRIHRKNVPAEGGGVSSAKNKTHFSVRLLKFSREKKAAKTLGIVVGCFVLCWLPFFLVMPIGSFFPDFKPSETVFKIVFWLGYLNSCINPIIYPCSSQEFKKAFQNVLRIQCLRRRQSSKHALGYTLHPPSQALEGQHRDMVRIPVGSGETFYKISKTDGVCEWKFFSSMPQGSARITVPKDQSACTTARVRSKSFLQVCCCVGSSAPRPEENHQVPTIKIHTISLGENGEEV

Sequence of Norepinephrine transporter (Q9WTR4 whole entry): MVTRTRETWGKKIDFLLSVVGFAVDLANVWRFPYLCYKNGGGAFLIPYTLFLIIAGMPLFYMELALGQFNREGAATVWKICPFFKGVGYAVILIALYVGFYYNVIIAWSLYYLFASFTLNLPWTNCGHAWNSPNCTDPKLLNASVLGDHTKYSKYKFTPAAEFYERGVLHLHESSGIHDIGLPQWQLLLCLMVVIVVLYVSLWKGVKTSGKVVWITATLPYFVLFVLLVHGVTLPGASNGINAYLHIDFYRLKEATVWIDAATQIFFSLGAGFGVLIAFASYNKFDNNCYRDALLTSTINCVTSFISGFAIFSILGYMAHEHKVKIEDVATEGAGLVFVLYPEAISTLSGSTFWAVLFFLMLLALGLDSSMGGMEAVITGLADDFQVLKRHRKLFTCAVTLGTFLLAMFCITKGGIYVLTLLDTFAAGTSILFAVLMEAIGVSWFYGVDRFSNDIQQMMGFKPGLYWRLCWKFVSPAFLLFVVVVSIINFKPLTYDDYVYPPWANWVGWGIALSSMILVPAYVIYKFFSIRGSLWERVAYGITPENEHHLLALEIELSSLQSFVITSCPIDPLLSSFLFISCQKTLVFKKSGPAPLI
Sequence of Melanocortin receptor 4 (P32245 whole entry): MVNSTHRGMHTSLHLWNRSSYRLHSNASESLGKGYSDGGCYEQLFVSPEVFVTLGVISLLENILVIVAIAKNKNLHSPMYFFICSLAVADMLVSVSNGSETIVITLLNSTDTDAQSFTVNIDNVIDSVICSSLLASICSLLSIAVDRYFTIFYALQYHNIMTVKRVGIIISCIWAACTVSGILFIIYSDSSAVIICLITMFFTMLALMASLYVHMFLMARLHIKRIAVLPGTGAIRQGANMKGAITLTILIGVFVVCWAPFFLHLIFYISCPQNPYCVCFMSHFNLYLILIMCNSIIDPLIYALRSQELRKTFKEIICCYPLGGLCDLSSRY
Sequence of D(2) dopamine receptor (P61169 whole entry): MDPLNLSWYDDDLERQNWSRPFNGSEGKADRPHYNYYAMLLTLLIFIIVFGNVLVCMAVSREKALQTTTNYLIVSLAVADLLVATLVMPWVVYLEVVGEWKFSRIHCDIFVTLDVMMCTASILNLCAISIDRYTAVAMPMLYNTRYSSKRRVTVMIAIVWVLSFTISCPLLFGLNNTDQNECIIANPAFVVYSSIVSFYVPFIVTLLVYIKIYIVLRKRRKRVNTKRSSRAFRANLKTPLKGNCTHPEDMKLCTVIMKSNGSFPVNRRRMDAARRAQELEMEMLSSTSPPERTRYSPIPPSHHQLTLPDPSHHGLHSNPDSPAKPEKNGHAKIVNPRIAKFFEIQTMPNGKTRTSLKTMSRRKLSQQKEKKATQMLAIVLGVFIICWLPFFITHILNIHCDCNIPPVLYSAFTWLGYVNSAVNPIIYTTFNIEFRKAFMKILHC
Sequence of Mu-type opioid receptor (P33535 whole entry): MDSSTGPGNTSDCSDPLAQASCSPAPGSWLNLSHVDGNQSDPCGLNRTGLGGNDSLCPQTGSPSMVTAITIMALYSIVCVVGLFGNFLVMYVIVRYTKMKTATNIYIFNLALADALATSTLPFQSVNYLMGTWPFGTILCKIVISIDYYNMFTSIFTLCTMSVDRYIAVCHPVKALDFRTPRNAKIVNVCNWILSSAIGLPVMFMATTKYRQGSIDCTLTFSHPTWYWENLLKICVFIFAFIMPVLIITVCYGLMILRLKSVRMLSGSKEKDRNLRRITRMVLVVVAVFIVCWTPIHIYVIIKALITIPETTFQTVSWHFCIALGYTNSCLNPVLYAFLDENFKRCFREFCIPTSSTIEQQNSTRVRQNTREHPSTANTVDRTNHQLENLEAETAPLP
Sequence of Sodium-dependent serotonin transporter (P31652 whole entry): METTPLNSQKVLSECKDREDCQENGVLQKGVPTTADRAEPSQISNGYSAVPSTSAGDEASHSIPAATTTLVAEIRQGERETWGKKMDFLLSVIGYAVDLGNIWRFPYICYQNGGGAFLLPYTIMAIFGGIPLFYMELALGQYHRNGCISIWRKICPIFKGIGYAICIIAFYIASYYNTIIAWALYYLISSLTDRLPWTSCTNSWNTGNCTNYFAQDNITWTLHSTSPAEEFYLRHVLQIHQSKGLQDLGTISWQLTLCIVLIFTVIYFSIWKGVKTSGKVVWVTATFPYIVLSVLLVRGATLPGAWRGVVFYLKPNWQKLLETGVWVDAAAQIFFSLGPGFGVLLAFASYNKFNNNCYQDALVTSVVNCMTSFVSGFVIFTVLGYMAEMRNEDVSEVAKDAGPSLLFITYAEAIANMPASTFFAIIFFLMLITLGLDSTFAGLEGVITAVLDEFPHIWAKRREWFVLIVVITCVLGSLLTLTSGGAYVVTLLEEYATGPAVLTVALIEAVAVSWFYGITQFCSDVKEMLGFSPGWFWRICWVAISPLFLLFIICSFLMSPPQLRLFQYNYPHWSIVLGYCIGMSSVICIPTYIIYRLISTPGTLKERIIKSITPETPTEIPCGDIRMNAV
Sequence of Delta-type opioid receptor (P33533 whole entry): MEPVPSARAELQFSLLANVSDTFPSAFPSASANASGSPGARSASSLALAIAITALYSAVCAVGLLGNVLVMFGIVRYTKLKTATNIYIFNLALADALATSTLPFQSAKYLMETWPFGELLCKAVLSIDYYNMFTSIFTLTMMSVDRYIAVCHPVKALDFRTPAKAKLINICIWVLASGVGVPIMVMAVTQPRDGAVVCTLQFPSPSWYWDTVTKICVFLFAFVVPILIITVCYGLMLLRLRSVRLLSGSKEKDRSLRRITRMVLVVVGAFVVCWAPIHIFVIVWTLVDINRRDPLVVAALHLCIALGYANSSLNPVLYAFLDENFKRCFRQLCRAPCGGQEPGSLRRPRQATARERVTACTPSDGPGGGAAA
Sequence of Histamine H1 receptor (P31390 whole entry): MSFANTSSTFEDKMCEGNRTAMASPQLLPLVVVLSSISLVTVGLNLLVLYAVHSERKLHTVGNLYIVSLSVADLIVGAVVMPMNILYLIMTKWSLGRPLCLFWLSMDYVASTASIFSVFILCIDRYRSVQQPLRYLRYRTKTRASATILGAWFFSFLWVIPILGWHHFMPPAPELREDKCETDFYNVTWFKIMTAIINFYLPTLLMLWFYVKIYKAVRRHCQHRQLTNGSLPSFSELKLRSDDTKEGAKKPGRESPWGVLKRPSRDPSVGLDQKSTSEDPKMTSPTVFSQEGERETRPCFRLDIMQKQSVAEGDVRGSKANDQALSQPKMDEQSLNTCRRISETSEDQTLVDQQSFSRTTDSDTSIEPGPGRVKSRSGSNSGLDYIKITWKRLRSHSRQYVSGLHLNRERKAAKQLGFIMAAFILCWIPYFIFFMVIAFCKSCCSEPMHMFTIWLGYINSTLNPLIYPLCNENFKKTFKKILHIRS

SMILES | IC50 (D(2) dopamine receptor) | IC50 (Mu-type opioid receptor) | IC50 [1] | IC50 [2] | IC50 [3] | IC50 (Histamine H1 receptor) | IC50 (Melanocortin receptor 4) | IC50 [4]
CC(C)N1CCN(C(CN2CCN(CCCc3ccccc3-c3ccccc3)CC2)c2ccc(F)cc2)CC1 (racemic) | 645 nM | > 10000 nM | 671 nM | > 10000 nM | 3130 nM | > 1000 nM | 11.2 nM | > 1000 nM
CC(C)N1CCN(C(CN2CCN(CCCc3cccc(F)c3-c3ccccc3)CC2)c2ccc(F)cc2)CC1 (racemic) | > 1000 nM | > 10000 nM | 2830 nM | > 10000 nM | 3400 nM | > 1000 nM | 23 nM | > 1000 nM
CC(C)N1CCN(C(CN2CCN(CCCc3ccc(F)cc3-c3ccccc3)CC2)c2ccc(F)cc2)CC1 (racemic) | > 1000 nM | > 10000 nM | 1850 nM | > 10000 nM | 1370 nM | > 1000 nM | 33 nM | > 1000 nM
CC(C)N1CCN(C(CN2CCN(CCCc3cc(F)ccc3-c3ccccc3)CC2)c2ccc(F)cc2)CC1 (racemic) | 721 nM | > 10000 nM | 369 nM | > 10000 nM | 1170 nM | > 1000 nM | 27.1 nM | > 1000 nM
CC(C)N1CCN(C(CN2CCN(CCCc3c(F)cccc3-c3ccccc3)CC2)c2ccc(F)cc2)CC1 (racemic) | > 1000 nM | > 10000 nM | 206 nM | > 10000 nM | 1460 nM | > 1000 nM | 11.7 nM | > 1000 nM
CC(C)N1CCN(C(CN2CCN(CCCc3c(Cl)cccc3-c3ccccc3)CC2)c2ccc(F)cc2)CC1 (racemic) | > 1000 nM | > 10000 nM | 1770 nM | > 10000 nM | 1290 nM | > 1000 nM | 27.1 nM | > 1000 nM
Cc1cccc(-c2ccccc2)c1CCCN1CCN(CC(c2ccc(F)cc2)N2CCN(C(C)C)CC2)CC1 (racemic) | > 1000 nM | > 10000 nM | 2400 nM | > 10000 nM | 4960 nM | > 1000 nM | 24.3 nM | > 1000 nM
CC(C)N1CCN(C(CN2CCN(CCCc3ccccc3-c3cccc(F)c3)CC2)c2ccc(F)cc2)CC1 (racemic) | > 1000 nM | > 10000 nM | 226 nM | > 10000 nM | 2110 nM | > 1000 nM | 23.6 nM | > 1000 nM
CC(C)N1CCN(C(CN2CCN(CCCc3ccccc3-c3ccc(F)cc3)CC2)c2ccc(F)cc2)CC1 (racemic) | 721 nM | > 10000 nM | 290 nM | > 10000 nM | 1340 nM | > 1000 nM | 10.5 nM | > 1000 nM
